We go through 89 molecules from a melting point compilation (Tetko et al.; mined from patent text by program, amines drawn as free bases though some values may be those of a salt).

What is called melting point is the temperature of the solid-liquid transition. For the molecule `COc1ccc(NC(=O)c2ccc(F)c(F)c2)cc1N`, the melting point was in the range of 148 to 151 °C.

Molecule `COC(=O)c1ccc(OCCC[Si](C)(C)C)cc1O` displayed a melting point of 32 to 33 °C.

For `COc1ccccc1C1CC(=O)C(C(C)=O)C(=O)C1` (centres undefined), the melting point is 65 to 66 °C.

Consider `O=C(OCCC1CCCCC1)c1ncn2c1[C@@H]1CCCN1C(=O)c1c(Cl)cccc1-2`, for which the melting point lay in the range of 131 to 132 °C.

Take `CCCCCCCCOC(=O)C(=C1SCCCS1)c1cccc(C(F)(F)F)c1`: the melting point stood at 49 °C.

In turn, `CC12CCC(O)CC1=CCC1C2CCC2(C)C(=C(C#N)CC(=O)O)CCC12` (centres undefined) had a melting point of 245 to 250 °C.

Take `COC(=O)c1ccc(COc2ccc3cc(-c4ccc(-c5ccccc5)[nH]4)ccc3c2)c(C(=O)OC)c1`: the melting point lay in the range of 203 to 205 °C.

As to `COC(=O)C1(CCCN2CCN(c3ccccc3)CC2)Oc2ccccc2CCC1O` (centres undefined), the melting point fell in the range of 98 to 99 °C.

Molecule `CCn1cc(C(=O)OC)c(=O)c2cc(F)c(N3CCNCC3)cc21` came in with a melting point of 179 to 181 °C.

For the molecule `COC(=O)c1ccc(NCc2cc(S(C)(=O)=O)ccc2OCc2ccccc2)cc1`, the melting point turned out to be 124 °C.

`CC(C(=O)NCCO)c1ccc(C(=O)c2cccs2)cc1` (centres undefined) came in with a melting point of 87.1 °C.

The molecule `COCn1ccnc1C(O)(c1ccc(Cl)cc1Cl)c1ccc(Cl)cc1Cl` displayed a melting point of 146 °C.

For the molecule `CCc1cc(C(C)=O)c(O)cc1OCCCC(C)(C)C#N`, the melting point was in the range of 55 to 56 °C.

Regarding `COc1ccc(C2CCC(OC(C)=O)CC2NC(=O)c2ccc(OCC3CC3)c(OCC3CC3)c2)cc1OC` (centres undefined), the melting point is 90 to 95 °C.

For the molecule `CCOC(=O)c1ccc(-c2coc(-c3cccc(C(F)(F)F)c3)n2)cc1`, the melting point was 132 to 133 °C.

The molecule `CC1(CN2CCN(C(=O)NCC=Cc3ccc(C(F)(F)F)cc3)CC2)Cn2cc([N+](=O)[O-])nc2O1` (centres undefined) had a melting point of 105 to 107 °C.

Molecule `COC(=O)c1ccc(NCc2ccc(Cl)c(Cl)c2)cn1` registered a melting point of 158 to 161 °C.

As to `COc1ccc(CSc2cccc(Cl)c2CN(C)C)cc1`, the melting point lay in the range of 101 to 104 °C.

The molecule `Oc1nc2cc(Cl)cc(Cl)c2c(O)c1O` showed a melting point of 270 to 273 °C.

With `Cc1ccn2c(C)c(-c3ccc4sc(=O)n(Cc5cccnc5)c4c3)nc2c1`, the melting point was 201 to 202 °C.

`CN(C)C(N)=Nc1cc(C#N)ccc1N1CCOCC1` came in with a melting point of 125 to 127 °C.

In the case of `CC(C)(C)C1=C(C#N)C(c2cccc(C#N)c2Br)c2c[nH]nc2N1` (centres undefined), the melting point worked out at 251 °C.

Molecule `O=C(O)c1ccccc1-c1nc(-c2ccc(Cl)c(Cl)c2)no1` returned a melting point of 202 to 204 °C.

`COC(=O)CS(=O)(=O)Nc1c(F)cc(F)cc1F`: the melting point lay within 99 to 100 °C.

In turn, `O=C1N(CC2COCCO2)c2ccccc2C12COc1cc3c(cc12)OCCCO3` (centres undefined) displayed a melting point of 137 to 139 °C.

For the molecule `O=C(O)CC1C(CCl)=CCC1O` (centres undefined), the melting point is 33 to 34 °C.

Consider `COc1cncc(-c2ccc(OC3SCC(OC(C)=O)C(OC(C)=O)C3OC(C)=O)cn2)c1` (centres undefined), for which the melting point amounted to 155 °C.

`COCCOC/C(=C\S(=O)(=O)c1ccc(C)cc1)C(=O)OC(C)(C)C` returned a melting point of 40 to 41 °C.

`CCc1ccccc1-c1nc(-c2cccc(OC)c2)nn1C(=O)Nc1ccc(C)cc1` registered a melting point of 141 to 142 °C.

As for `Brc1ccc(OC2CCN(c3nc4cccc5c4n3CCC5)CC2c2ccccc2)cc1` (centres undefined), the melting point fell in the range of 188 to 189 °C.

Molecule `O=C1COCC(=O)N1CCCCCCN1CCCCC1` came in with a melting point of 121 to 122 °C.

With `CCOC(=O)C(C)(C)Oc1ccc(CNc2ccccc2)cc1`, the melting point was 45 to 46 °C.

Regarding `CCCCCCCCCCCCCCCCNC(=O)OCC(CO)OC` (centres undefined), the melting point lay within 47.5 to 48 °C.

For `CCOC1(OCC)CCc2c(ccc3c(=O)c4cc(C(=O)O)ccc4oc23)O1`, the melting point fell in the range of 191 to 193 °C.

As to `CCCc1cc2nc(=O)[nH]n2c(C)n1`, the melting point amounted to 173 °C.

The molecule `CN(C)CCNC(=O)[C@H]1C[C@H](NC(=O)Cc2ccccc2)c2c(Cl)cc(Cl)cc2N1` (relative stereo) displayed a melting point of 158 to 159 °C.

As to `CCCCCCCCCCOc1ccc(C(=O)Nc2ccc(C(=O)O)cc2)cc1C12CC3CC(CC(C3)C1)C2`, the melting point lay within 247 to 248 °C.

Molecule `O=[N+]([O-])c1ccc(-c2nc3cc(OCc4ccccc4)ccc3s2)c(Cl)c1` registered a melting point of 156 to 157 °C.

`N#Cc1cccc(-c2cnc3[nH]c(=O)n(CC4CCCCC4)c3n2)c1` had a melting point of 228 to 230 °C.

Molecule `O=C(NCCCCC1CCSS1)N1CCSC1` (centres undefined) displayed a melting point of 76 to 77 °C.

The molecule `CCOC(=O)c1cn(C2CC2)c2c(F)c(N3CC[C@H](NC(=O)OC(C)(C)C)C3)c(F)cc2c1=O` displayed a melting point of 148 to 151 °C.

For `Nc1ncc(Cc2cccc(-c3ccccc3)c2)c(N)n1`, the melting point was 108 to 115 °C.

In turn, `CCOC(=O)c1cnc2c(N(C)Cc3ccccc3)cc(CN3CCOCC3)cc2c1O` displayed a melting point of 151 to 153 °C.

Consider `CN1CCN(c2cc3c(cc2C(F)(F)F)[nH]c(=O)c2n[nH]c(=O)n23)CC1`, for which the melting point was > 300 °C.

The molecule `CC(C)(C)CC(C)(C)c1ccc(Nc2ccc(Cc3ccc(Nc4ccc(C(C)(C)CC(C)(C)C)cc4)c4ccccc34)c3ccccc23)cc1` returned a melting point of 80 °C.

As to `c1csc(-c2coc(COc3ccc(CCCn4ccnc4)cc3)n2)c1`, the melting point lay in the range of 123 to 124 °C.

`COc1ccc2nc3c(C)ccc([N+](=O)[O-])c3c(Cl)c2c1` came in with a melting point of 227 to 228 °C.

Molecule `O=C(O)Cc1cc(C(=O)c2ccccc2F)ccc1O` came in with a melting point of 102 °C.

Take `CN(C(=O)COc1nc2cccc(F)c2s1)c1ccccc1`: the melting point is 116 °C.

As for `N#CC(c1ccc(C(F)(F)F)cc1)N1CCOCC1` (centres undefined), the melting point lay within 89 to 90 °C.

`COc1ccccc1[C@H](c1cccc2ccccc12)[C@@](C)(C#N)C(=O)N1CC=C(c2c[nH]c3ccccc23)CC1`: the melting point lay within 229 to 231 °C.

Turning to `CCN1CC2(CCN(Cc3ccccc3)CC2)OC1=O`, the melting point is 105 to 106 °C.

Turning to `C=C(C)n1c(=O)n(CCN2CCC(Cc3c[nH]c4ccc(F)cc34)CC2)c2ccccc21`, the melting point turned out to be 132 °C.

`CC(C)(C)N=NC(C)(C)C#N` registered a melting point of 17 °C.

The molecule `CC1(c2ccc(-c3ccc(Cl)cc3)cc2)CC(=O)NN1` (centres undefined) returned a melting point of 214 to 215 °C.

Regarding `CCN(CCCc1c[nH]c2ccc(Cl)cc12)C1COc2c(F)ccc(C(N)=O)c2C1` (centres undefined), the melting point lay in the range of 149 to 156 °C.

The molecule `CN1C(=O)[C@@H](CN2CCCCC2)C[C@H]1c1ccc(Br)cc1` displayed a melting point of 55 to 58 °C.

In turn, `C#CCOc1cc(C2(C(F)(F)F)CC(=O)NC(OCC)=N2)c(F)cc1Br` (centres undefined) came in with a melting point of 101 to 102 °C.

On to `Cn1c(CCc2cc(C(F)(F)F)cc(C(F)(F)F)c2)c(Cc2c[nH]c3ccccc23)oc1=O`, for which the melting point fell in the range of 109 to 110 °C.

`CC(C)(C)OC(=O)NCC1=C(CC(=O)O)CCCC1` had a melting point of 118 to 119 °C.

In the case of `N#CSCC(Cl)=C(Cl)CBr`, the melting point lay within 64.5 to 66.5 °C.

The molecule `O=C1N(c2ccc(Cl)cc2)c2ncccc2C1(Cc1ccncc1)Cc1ccccn1` (centres undefined) registered a melting point of 193 to 195 °C.

Regarding `CCNc1nc2ccccc2n2cnnc12`, the melting point was in the range of 254 to 256 °C.

`FC(F)(F)c1cnc2nc1Nc1cccc(c1)/C=C\c1cccc(c1)N2` came in with a melting point of 167 to 169 °C.

`COCCNC(=O)c1ccc(/C=C/C(=O)O)cc1` returned a melting point of 205 °C.

The molecule `COC(=O)C1=C(C)NC(=O)N(C)C1c1cccc(N)c1` (centres undefined) gave a melting point of 205 to 209 °C.

Consider `CCCN1C(=O)N2CCN=C2c2[nH]c(C3CCCC3)nc21`, for which the melting point lay in the range of 215 to 216 °C.

Consider `O=C1Cc2cc3cc(OCCCC(=O)N4CCN(CC5CCCCC5)CC4)ccc3nc2N1`, for which the melting point amounted to 212 °C.

`CCOC(=O)c1cc(=O)c2c(OCC(O)CSC)cccc2o1` (centres undefined) gave a melting point of 69 to 71 °C.

`CCOC(=O)CCCCn1c(=O)[nH]c2ccsc2c1=O`: the melting point was in the range of 116 to 117 °C.

`CCCCCCCCCCCCS(=O)(=O)c1cc2c(cc1S(=O)(=O)CCCCCCCCCCCC)C(=O)c1c(c(O)c3ccccc3c1O)C2=O` came in with a melting point of 173 to 175 °C.

`CC1(CNc2ccccc2)SC2C(NC(=O)Cc3ccccc3)C(=O)N2C1C(=O)OCC(Cl)(Cl)Cl` (centres undefined) had a melting point of 148 to 149 °C.

The molecule `N#CNC(=O)C=NNc1ccc(F)cc1` registered a melting point of 265 to 267 °C.

`CN1CCN(S(=O)(=O)c2ccc(O)cc2)CC1` came in with a melting point of 225 to 227 °C.

As to `CC1SC(=O)NN=C1c1ccc2c(c1)C(C)(C)C(=O)N2C(=O)c1ccccc1` (centres undefined), the melting point is 200 °C.

`COc1cccc(C(C)n2nc(C(=O)O)c3c2-c2ccc(OCc4cncnc4)cc2CC3)c1` (centres undefined) yielded a melting point of 200 to 201 °C.

`CC(C)n1c(CC[C@@H](O)C[C@@H](O)CC(=O)OC(C)(C)C)c(-c2ccc(F)cc2)c(-c2ccccc2)c1C(N)=O` displayed a melting point of 94 to 96 °C.

For the molecule `Cn1cc(C(=O)NCc2ccc(Cl)cc2)c(=O)c2cc(COCC[C@@H](O)c3ccccc3)sc21`, the melting point is 154 to 156 °C.

Take `C=C(C)C(=O)OCCC#Cc1ccc(-c2ccc(OC(=O)C(=C)C)cc2)cc1`: the melting point was determined as 80 °C.

Consider `CCCCCCCCCCOc1ccc(Oc2cccc(C(=O)O)c2)cc1CCC(=O)O`, for which the melting point was 102 to 104 °C.

With `CSc1ccc(-c2c(C(F)(F)F)n(C)[nH]c2=O)cc1`, the melting point lay within 142 to 146 °C.

`N#Cc1ccc(N=CNc2ccc(C#N)cc2)cc1` returned a melting point of 214 to 217 °C.

With `Cc1cc(Cl)c(C(=O)O)c(Cl)c1`, the melting point lay in the range of 139 to 145 °C.

Regarding `CCOC(=O)CN1Cc2c(C)cccc2NC1=O`, the melting point was in the range of 184 to 185 °C.

As to `CNC(=O)C(Cc1ccc(OCCc2nc(-c3ccccc3)oc2C)cc1)C(=O)OC` (centres undefined), the melting point lay within 151 to 152 °C.

The molecule `COc1cc([N+](=O)[O-])c2nccc(C)c2c1OCCCCc1ccccc1` registered a melting point of 88 to 89 °C.

With `CN1CCC(NC(=O)c2cccc3nc(-c4ccccc4)oc23)CC1`, the melting point fell in the range of 209 to 210 °C.

As for `O=C(O)Cc1c(-c2ccccc2)[nH]c2nccnc12`, the melting point was 276 to 277 °C.

In turn, `COC1=C(OC)C(=O)C2=C(CCC(CCOc3ccccc3)CC2)C1=O` had a melting point of 71 to 72 °C.
